The text below walks through data of US9593149B2, “Amylin and calcitonin receptor agonist” (Novo Nordisk A/S, priority 2014, dated 2017).

≈ marks a conversion by molar mass, not a printed value. Numbered stars: 1 amine (or outer) side, 2 acyl side, 3 side chain; on linkers, the order of the positions; unused ones are H or OH. Peptide text beside a SMILES is read from it. * marks the point of attachment. C18 diacid = O=C(O)CCCCCCCCCCCCCCCCC(=O)*; γGlu = O=C(O)[C@H](CCC(=O)[*:2])N[*:1]; C14 diacid = O=C(O)CCCCCCCCCCCCC(=O)*; AEEA = NCCOCCOCC(=O)O

A short description of data set [1]: Assay (IV) determination of solubility. It is filed as physicochemical. As to the method: Assay (IV)—Determination of Solubility
The mimylin peptide was dissolved in water at ˜500 nmol/ml and mixed 1:1 with a series of buffers (100 mM glycylglycine pH 3.0, 100 mM glycylglycine pH 4.0, 100 mM glycylglycine pH 5.0, 100 mM bistrispropane pH 6.0, 100 mM bistrispropane pH 6.5, 100 mM bistrispropane pH 7.0, 100 mM bistrispropane pH 7.5, 100 mM bistrispropane pH 8.0).

The nature of the next data set: Assay (X) pK, T½ in rat. It is filed as in vivo, Sprague Dawley rats. As to the method: Assay (X)—pK—Determination of T½ in Rat
Pharmacokinetic (PK) studies rats were conducted in order to determine the T½ of mimylin peptide after i.v. and s.c. administration.
T½ values of the mimylin derivates of the invention is determined by pharmacokinetic studies in Sprague Dawley male rats, from Taconic Europe and the principles of laboratory animal care are followed.
An acclimatisation period of approximately 7 days was allowed before the animals entered the study. At start of the acclimatisation period the rats were in the weight range of 250-400 g.
The studies were conducted in an animal room which was illuminated to give a cycle of approximately 12 hours light and 12 hours darkness. The animals were group housed and had food and water ad lib. The animals were weighed on the days of dosing.
In the present studies the test substances were administered subcutaneously or intravenously in approximately 20 nmol/kg dose. The animals received a single subcutaneous injection to the neck for subtaneous administration or directly into the tail vein for intravenous administration. Each test substance was given to typically three but in some cases two or four animals.
A full plasma concentration-time profile, employing 8-10 sampling points, was obtained from each animal. In example blood samples were collected according to the following schedule: After subcutaneous or intravenous administration:
At each sampling time, 0.08 to 0.10 ml of blood was drawn from each animal. The blood samples were taken in the sublingual vein via venous puncture and the use of a capillary tube.
The blood samples were stabilised with EDTA. Blood samples were kept on ice for max 20 min. before centrifugation. Plasma was separated using centrifugation (i.e. at 4° C., 10 min., 1500G) and was immediately transferred to Micronic tubes or PCR plates. Approximately 40 μl plasma was transferred and was stored at −20° C. until assayed. The plasma samples were assayed for the content of mimylin compound by LCMS
The plasma concentration-time profiles were analysed by a non-compartmental pharmacokinetic analysis (NCA) using Phoenix WinNonlin 6.3 (Pharsight Inc., Mountain View, Calif., USA). NCA was performed using the individual plasma concentration-time profiles from each animal. T½ is the terminal half-life=In2/λz and was determined from λz, the first order rate constant associated with the terminal (log-linear) portion of the curve, estimated by linear regression of time vs. log concentration.

Data set [2] has as its target T1, human calcitonin (a) receptor, BHK570 cells (Homo sapiens, UniProt P30988).
T1 construct: host or cells: BHK570
T1 sequence (P30988 25-474): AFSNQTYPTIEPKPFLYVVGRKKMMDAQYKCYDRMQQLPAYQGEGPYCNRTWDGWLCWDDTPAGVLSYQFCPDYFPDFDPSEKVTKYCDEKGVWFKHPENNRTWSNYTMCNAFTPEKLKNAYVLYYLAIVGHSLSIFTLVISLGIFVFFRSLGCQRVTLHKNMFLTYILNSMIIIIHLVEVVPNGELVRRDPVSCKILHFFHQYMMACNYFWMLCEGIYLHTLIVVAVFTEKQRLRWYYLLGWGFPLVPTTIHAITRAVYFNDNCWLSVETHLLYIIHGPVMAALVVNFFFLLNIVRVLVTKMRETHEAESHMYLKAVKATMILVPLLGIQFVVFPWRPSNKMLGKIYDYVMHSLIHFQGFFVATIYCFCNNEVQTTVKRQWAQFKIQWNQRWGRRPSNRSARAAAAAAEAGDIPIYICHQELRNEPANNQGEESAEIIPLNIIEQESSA
In words: Assay (II)a functional CRE-luciferase assay with albumin, human calcitonin receptor. It is filed as cell-based. Conditions: Tested with HSA; read-out: hCTR funct. EC50. An excerpt:
Assay(II)a—Human Calcitonin and Amylin Receptor Assay
1. Luciferase Assay Outline
Activation of calcitonin and amylin (co-expression of calcitonin receptor and receptor activity modifying proteins (RAMP)) receptors lead to increased intracellular concentrations of cAMP. Consequently, transcription is activated by promoters containing multiple copies of the cAMP response element (CRE). It is thus possible to measure amylin activity by the use of a CRE luciferase reporter gene introduced into BHK cells also expressing calcitonin or amylin receptors.
2. Construction of Calcitonin (a)—and Amylin 3(a)—Receptor/CRE-Luc Cell Line.
A BHK570 cell line was stably transfected with the human calcitonin receptor and a CRE-responsive luciferase reporter gene. The cell line was further transfected with RAMP-3, using standard methods. This turns the calcitonin receptor into an amylin 3(a) receptor. Methotrexate, Neomycin, and Hygromycin are selection markers for luciferase, the calcitonin receptor, and RAMP-3, respectively.
To perform activity assays, BHK calcitonin (a) receptor- or amylin 3(a)-receptor/CRE-luc cells were seeded in white 96 well culture plates at a density of about 20.000 cells/well. […] After incubation overnight at 37° C. and 5% CO2, the growth medium was replaced by 50 μl/well assay medium (DMEM (without phenol red), Glutamax™, 10% FBS, and 10 mM Hepes, pH 7.4). Further, 50 μl/well of standard or sample in assay buffer were added.
After 3 hours incubation at 37° C. and 5% CO2, the assay medium with standard or sample were removed and replaced by 100 μl/well PBS. Further, 100 μl/well LucLite™ was added. The plates were sealed and incubated at room temperature for 30 minutes. Finally, luminescence was tested on a TopCounter (Packard) in SPC (single photon counting) mode.

The target in data set [3] is T2, human amylin 3(a) receptor (human calcitonin receptor + RAMP-3), BHK570 cells (Homo sapiens, UniProt O60896+P30988).
T2 construct: host or cells: BHK570
The data set can be described thus: Assay (II)b functional CRE-luciferase assay without albumin, human amylin receptor. The class given is cell-based. Conditions: Tested without HSA; read-out: hAmylin-R funct. EC50. The method in brief:
(§1)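 BHK570 cells stably expressing human calcitonin receptor with CRE-luciferase reporter, plus RAMP-3 for the amylin 3(a) line. Cells stimulated 3 hours at 37 °C in albumin-free assay medium (0.1% ovalbumin, 10 mM Hepes pH 7.4); cAMP-driven luciferase read by luminescence.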

Data set [4] deals with T1, human calcitonin (a) receptor, BHK570 cells. In words: Assay (II)b functional CRE-luciferase assay without albumin, human calcitonin receptor. It is filed as cell-based. The conditions noted are these: Tested without HSA; read-out: hCTR funct. EC50. Summed up:
as §1

Data set [5] has as its target T3, human amylin receptor (human calcitonin receptor + human RAMP3), BHK tk'ts 13 cells (Homo sapiens, UniProt O60896+P30988).
T3 construct: expressed in transfected cells; host or cells: BHK tk'ts 13
In words: Assay (Va) binding to the human amylin receptor (whole cell). Conditions: read-out: hAmylin-R binding IC50. As to the method:
The day before the assay the cells were Seeded into Poly-D-Lysin coated 384W Opaque White, BD BioCoat plates (10000 cells/well) and Incubated overnight at 37° C., 5% CO2, 95% humidity.

T2 sequence (O60896 24-148, one chain of several): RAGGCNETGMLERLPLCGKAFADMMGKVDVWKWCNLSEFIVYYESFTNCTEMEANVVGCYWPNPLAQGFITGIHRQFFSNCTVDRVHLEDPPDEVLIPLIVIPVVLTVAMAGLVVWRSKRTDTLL
T3 sequence (O60896 24-148, one chain of several): as above

For `CC(C)C[C@H](NC(=O)[C@H](C)NC(=O)[C@H](C)NC(=O)[C@@H](NC(=O)[C@H](CO)NC(=O)[C@H](CC(C)C)NC(=O)[C@H](CCC(=O)O)NC(=O)[C@H](CO)NC(=O)[C@H](C)NC(=O)[C@H](CCC(=O)O)NC(=O)COCCOCCNC(=O)COCCOCCNC(=O)COCCOCCNC(=O)COCCOCCNC(=O)CC[C@H](NC(=O)CC[C@H](NC(=O)CCCCCCCCCCCCC(=O)O)C(=O)O)C(=O)O)[C@@H](C)O)C(=O)NCC(=O)N[C@@H](CCCNC(=N)N)C(=O)N[C@@H](CC(C)C)C(=O)N[C@@H](CO)C(=O)N[C@@H](C)C(=O)N[C@@H](CCC(=O)O)C(=O)N[C@@H](CC(C)C)C(=O)N[C@@H](Cc1cnc[nH]1)C(=O)N[C@@H](CCC(=O)O)C(=O)N[C@@H](CC(C)C)C(=O)N[C@@H](C)C(=O)N[C@H](C(=O)N[C@@H](CC(C)C)C(=O)N1CCC[C@H]1C(=O)N[C@@H](CCCNC(=N)N)C(=O)N[C@H](C(=O)N[C@@H](CCC(=O)O)C(=O)N[C@H](C(=O)NCC(=O)N1CCC[C@H]1C(=O)N[C@@H](CCC(=O)O)C(=O)N[C@@H](CO)C(=O)N1CCC[C@H]1C(N)=O)[C@@H](C)O)[C@@H](C)O)[C@@H](C)O` [compound 5, [N-terminal(C14 diacid-2xgGlu-4xOEG)]mimylin] ({C14 diacid-γGlu-γGlu-AEEA-AEEA-AEEA-AEEA}-EASELSTAALGRLSAELHELATLPRTETGPESP-NH2), the Solubility result in data set [1] (pH 3.0), in data set [1] (pH 4.0), in data set [1] (pH 5.0), in data set [1] (pH 6.0), in data set [1] (pH 6.5) and in data set [1] (pH 7.0) was “≧200 μM” throughout. For the same molecule, the Solubility result in data set [1] (pH 7.5) and in data set [1] (pH 8.0) was “≧200 μM” each time. The “PK rat iv T½” value in the data set “Assay (X) pK, T½ in rat” (i.v.) is 6 h. In addition, in the data set “Assay (X) pK, T½ in rat” (s.c.), the “PK rat sc T½” value is 13 h.
As usually defined, the half-life is the time in which the quantity being followed falls by half. The low end stands for fast loss, the high end for slow loss. `CC(C)C[C@H](NC(=O)[C@H](CCCCN)NC(=O)CNC(=O)[C@H](CC(C)C)NC(=O)[C@@H](NC(=O)[C@@H]1CSSC[C@H](N)C(=O)N[C@@H](CO)C(=O)N[C@@H](CC(N)=O)C(=O)N[C@@H](CC(C)C)C(=O)N[C@@H](CO)C(=O)N[C@@H]([C@@H](C)O)C(=O)N1)C(C)C)C(=O)N[C@@H](CO)C(=O)N[C@@H](CCC(N)=O)C(=O)N[C@@H](CCC(=O)O)C(=O)N[C@@H](CC(C)C)C(=O)N[C@@H](Cc1c[nH]cn1)C(=O)N[C@@H](CCCCN)C(=O)N[C@@H](CC(C)C)C(=O)N[C@@H](CCC(N)=O)C(=O)N[C@H](C(=O)N[C@@H](Cc1ccc(O)cc1)C(=O)N1CCC[C@H]1C(=O)N[C@@H](CCCNC(=N)N)C(=O)N[C@H](C(=O)N[C@@H](CC(N)=O)C(=O)N[C@H](C(=O)NCC(=O)N[C@@H](CO)C(=O)NCC(=O)N[C@H](C(=O)N1CCC[C@H]1C(N)=O)[C@@H](C)O)[C@@H](C)O)[C@@H](C)O)[C@@H](C)O` [Salmon calcitonin, reference compound] showed a half-life in the data set “Assay (X) pK, T½ in rat” (male, Sprague Dawley, plasma, sc, 20 nmol/kg) of 1 h.
Usually EC50 stands for the midpoint of the concentration-response curve. Usually solubility stands for how much of the substance goes into solution per volume. Low values mean a poorly soluble substance, high ones a readily soluble substance. What is called IC50 is the concentration needed to halve the response being measured. As to `CC(C)C[C@H](NC(=O)[C@H](CCCNC(=N)N)NC(=O)CNC(=O)[C@@H](NC(=O)[C@@H](NC(=O)[C@H](C)NC(=O)[C@@H](NC(=O)[C@H](CO)NC(=O)[C@@H](NC(=O)[C@H](CCC(=O)O)NC(=O)[C@H](CO)NC(=O)[C@H](C)NC(=O)CC[C@H](NC(=O)CCCCCCCCCCCCCCCCC(=O)O)C(=O)O)C(C)C)[C@@H](C)O)C(C)C)C(C)C)C(=O)N[C@@H](CO)C(=O)N[C@@H](C)C(=O)N[C@@H](CCC(=O)O)C(=O)N[C@@H](CC(C)C)C(=O)N[C@@H](Cc1c[nH]cn1)C(=O)N[C@@H](CCC(=O)O)C(=O)N[C@H](C(=O)N[C@@H](C)C(=O)N[C@H](C(=O)N[C@@H](CC(C)C)C(=O)N1CCC[C@H]1C(=O)N[C@@H](CCCNC(=N)N)C(=O)N[C@H](C(=O)N[C@@H](CCC(=O)O)C(=O)N[C@H](C(=O)NCC(=O)N[C@@H](CO)C(=O)NCC(=O)N[C@@H](CO)C(=O)N1CCC[C@H]1C(N)=O)[C@@H](C)O)[C@@H](C)O)[C@@H](C)O)C(C)C` [compound 102, [N-terminal(C18 diacid-gGlu), des1, 5V, 9V, 10V, 20V, 30S, 31G]mimylin] ({C18 diacid-γGlu}-ASEVSTAVVGRLSAELHEVATLPRTETGSGSP-NH2), the concentration giving a half-maximal response (EC50) is 0.028 nM in data set [2], 0.012 nM in data set [3] and 0.006 nM in data set [4]. The solubility at 18 h is no less than 200 µM in data set [1] (bistrispropane buffer, pH 6.5); no less than 200 µM in data set [1] (bistrispropane buffer, pH 7.5); no less than 200 µM in data set [1] (bistrispropane buffer, pH 6.0); no less than 200 µM in data set [1] (bistrispropane buffer, pH 7.0); no less than 200 µM in data set [1] (bistrispropane buffer, pH 8.0); 6 µM (≈ 21.8 µg/mL) in data set [1] (glycylglycine buffer, pH 3.0). The same molecule returned a solubility at 18 h in data set [1] (glycylglycine buffer, pH 5.0) of no less than 200 µM. In addition, the IC50 in data set [5] amounted to 1.65 nM.
